Data published in PMC2903571, “Sterol carrier protein-x gene and effects of sterol carrier protein-2 inhibitors on lipid uptake in Manduca sexta” (BMC Physiology, 2010).
Counter-ions that a name gives are not always drawn.

Legend:
[1] = design: method as in PMID 6833881; conditions: room temperature; cited from earlier work
[2] = design: method as in PMID 11566796; conditions: cited from earlier work
Manduca sexta GV1 cells = tested on: Manduca sexta GV1 cells; design: method as in PMID 15627652; conditions: 10 μM; cited from earlier work
MsSCP-2 [3] = molecular target: T1, MsSCP-2 (Manduca sexta, UniProt D8VD27); assay: biochemical
T1 sequence (D8VD27 entry or part of it): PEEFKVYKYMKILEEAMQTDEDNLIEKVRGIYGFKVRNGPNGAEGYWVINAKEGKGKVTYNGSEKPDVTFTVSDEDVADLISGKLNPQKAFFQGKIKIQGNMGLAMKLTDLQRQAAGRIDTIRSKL
Experimental: (§5) The inhibitory effect of SCPI on cholesterol binding to MsSCP-2 was measured using NBD-cholesterol competition assays. In a 50 μl reaction solution in each well of a 96-well plate purified recombinant MsSCP-2 (5 μM) was incubated with NBD-cholesterol (1.25 μM) in the presence of increased concentrations of a SCPI (0-12.5 μM) in 10 mM KHPO4 buffer (pH 7.4) for 5 min. The fluorescence intensity (excitation/emission = 470/530) of NBD-cholesterol was measured. The background control was NBD-cholesterol alone in 10 mM KHPO4 buffer (pH 7.4). A separate set of tests was performed using NBD-cholesterol with increasing concentrations of a SCPI to assess whether a SCPI interfered with NBD-cholesterol fluorescence. If a SCPI interfered with NBD-cholesterol fluorescence, the background control was NBD-cholesterol along with the SCPI. The net change in NBD-cholesterol fluorescence intensity was calculated by subtracting the fluorescence of the background control from the NBD-cholesterol-MsSCP-2 complex in the absence or presence of an inhibitor. The data were plotted with the relative NBD-cholesterol fluorescent intensity (bound NBD-cholesterol) as the y-axis and the molarities of the inhibitor as the x-axis. Bacterial GST protein and Aedes aegypti SCP-2 protein (AeSCP-2) were used as a negative control and a positive control for the assays, respectively.

[4] = tested on: M. sexta Day 3 4th instar larvae; assay: [3H]-palmitic acid uptake (label/chase) in larvae fed SCPIs; format: in vivo, Manduca sexta; conditions: midgut tissue, 2-6 h post feeding
Experimental: (§1) Collected tissue samples were stored at -80°C.
(§2) Student t-test was used in cases where a pair of treatments was compared to determine the significance of the differences.

AeSCP-2 [5] = molecular target: T2, AeSCP-2 (Aedes aegypti, UniProt Q86PR3); assay: biochemical
T2 sequence (Q86PR3 1-110): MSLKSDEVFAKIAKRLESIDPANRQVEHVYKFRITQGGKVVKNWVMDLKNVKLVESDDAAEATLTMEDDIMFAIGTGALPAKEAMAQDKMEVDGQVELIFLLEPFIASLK
Experimental: as §5

[6] = tested on: M. sexta Day 3 4th instar larvae; assay: [3H]-cholesterol uptake (label/chase) in larvae fed SCPIs; format: in vivo, Manduca sexta; conditions: for suppression of cholesterol storage (stored [3H]-cholesterol) in the fat body: within 6 hours of treatment, versus controls; for accumulation of [3H]-cholesterol in the fat body versus controls: within 6 hours post feeding; for [3H]-cholesterol levels in the feces, higher than in the controls: within the 6 hour period; for amount of labeled cholesterol in the hemolymph: 2 to 6 hours post feeding; for hemolymph [3H]-cholesterol levels versus control: all post feeding time points; for total amount of [3H]-cholesterol in the midgut tissue versus controls: over the observed time period (2-6 h), two-way ANOVA
Experimental: as §1, §2

Day 3 4th instar larvae = assay: Dietary uptake of NBD-cholesterol in larvae fed SCPIs; conditions: mean ± S.D.
Experimental: NBD-cholesterol and the SCPI were added into the diet and fed to Day 3 4th instar larvae (12 insects (4 insects/time)/group) as described for [^3H]-cholesterol. Total lipids were extracted from tissue samples as described for [^3H]-cholesterol. Dried lipids were re-dissolved in 50 μl methanol and the NBD fluorescent was measured (470/530 nm = excitation/emission). RFU = the relative fluorescent unit (sample FU - blank FU).
**Data were analyzed using two-way ANOVA.

Manduca sexta larvae = tested on: Manduca sexta larvae; design: method as in PMID 15627652; conditions: cited from earlier work
GST = assay: NBD-cholesterol binding assay, GST (negative control); design: species or system bacterial; conditions: negative control protein
Experimental: (§3) MsSCP-2 binding affinity for NBD-cholesterol, an analog of cholesterol, was determined using NBD-cholesterol binding assays. A 1 ml sample of 10 μM recombinant MsSCP-2 was diluted with 10 mM KHPO4 buffer (pH 7.4) to various concentrations (1 nM~10 μM). Twenty-five microliters of each concentration of MsSCP-2 solution and the control (without MsSCP-2) were thoroughly mixed with 25 μl of NBD-cholesterol solution (1 μM in KHPO4 buffer, pH 7.4) and allowed to equilibrate for 3 minutes to permit stable measurement of the fluorescence signal. NBD-cholesterol fluorescence was excited at 470 nm, and emission was recorded at 530 nm using a fluorescence microplate reader (Model: GeminiXPS, Molecular Devices). Data were fit using a simple, single binding site, non-linear regression model in GraphPad PRISM® software version 4.0 (GraphPad Software Inc., San Diego, CA) using the equation: [drawing 1]
(§4) Where, Kd is the binding affinity, X is the NBD-cholesterol concentration (μM), Y is the total binding (fluorescent intensity unit), and Bmax is the maximum specific binding to be fit. AeSCP-2 and GST were used as a positive control and a negative control, respectively. NBD-cholesterol binding assays for the controls were performed the same as described above for recombinant MsSCP-2.

AeSCP-2 [7] = molecular target: T2, AeSCP-2; assay: NBD-cholesterol binding assay, AeSCP-2 (positive control); conditions: NBD-cholesterol 1 μM, one site binding non-linear regression; read-out: binding affinity (Kd) of AeSCP-2 to NBD-cholesterol
Experimental: as §3, §4

MsSCP-2 [8] = molecular target: T1, MsSCP-2; assay: NBD-cholesterol binding assay, recombinant MsSCP-2; conditions: NBD-cholesterol 1 μM, MsSCP-2 1 nM~10 μM, one site binding non-linear regression; read-out: binding affinity (Kd) of MsSCP-2 to NBD-cholesterol
Experimental: as §3, §4

Structure (SMILES) | suppression of cholesterol uptake (Manduca sexta GV1 cells) [%] | EC50 (MsSCP-2 [3]) [nM] | [3H]-palmatic acid uptake/levels in the midgut [4] | EC50 (AeSCP-2 [5]) [nM] | amount of [3H]-cholesterol in the midgut [6] [DMP/mg protein] | suppression of cholesterol storage (stored [3H]-cholesterol) in the fat body ([6]; fat body) [%] | accumulation of [3H]-cholesterol in the fat body versus controls ([6]; fat body) | [3H]-cholesterol levels in the feces, higher than in the controls [6] [%] | amount of labeled cholesterol in the hemolymph ([6]; SCPI at LD50 dosage in diet) [DPM/mg protein] | hemolymph [3H]-cholesterol levels versus control [6] | total amount of [3H]-cholesterol in the midgut tissue versus controls ([6]; midgut) | NBD-cholesterol, fat body, 2 hour (Day 3 4th instar larvae) [RFU/mg proteins] | NBD-cholesterol, fat body, 4 hour (Day 3 4th instar larvae) [RFU/mg proteins] | NBD-cholesterol, fat body, 6 hour (Day 3 4th instar larvae) [RFU/mg proteins] | NBD-cholesterol, hemolymph, 2 hour (Day 3 4th instar larvae) [RFU/mg proteins] | NBD-cholesterol, hemolymph, 4 hour (Day 3 4th instar larvae) [RFU/mg proteins] | NBD-cholesterol, hemolymph, 6 hour (Day 3 4th instar larvae) [RFU/mg proteins] | NBD-cholesterol, midgut, 2 hour (Day 3 4th instar larvae) [RFU/mg proteins] | NBD-cholesterol, midgut, 4 hour (Day 3 4th instar larvae) [RFU/mg proteins] | NBD-cholesterol, midgut, 6 hour (Day 3 4th instar larvae) [RFU/mg proteins] | other results
CC(C)CCC[C@@H](C)[C@H]1CC[C@H]2[C@@H]3CC=C4C[C@@H](O)CC[C@]4(C)[C@H]3CC[C@]12C [Cholesterol, cholesterol] |  |  |  |  |  |  |  |  |  |  |  |  |  |  |  |  |  |  |  |  | solubility in water [1]: ~ 10 nM; flip-flop rate (t1/2) within the lipid bilayer [2]: 1 to 2 min
CC(=O)Nc1ccc(Nc2nc(-c3ccc(Cl)c(Cl)c3)cs2)cc1 [SCPI-1, N-4-{[4-(3,4-dichlorophenyl)-1,3-thiazol-2-yl]amino}phenyl)aetamide hydrobromide] | 15 | 2200 | suppressed | 900 | 555098.9 | 37 | significantly lower | 265.84 | 28087.6 | significantly lower | significantly lower | 8.01±2.84 | 4.18±1.06 | 3.75±1.10 | 8.62±3.62 | 7.04±1.37 | 5.63±1.62 | 22.77±3.02 | 22.61±4.57 | 17.78±6.43 | total [3H]-cholesterol in the midgut tissue compared with the control group ([6]; midgut, 2 hour time point, SCPI at LD50 dosage in diet): slightly lower
COc1cccc(-n2sc3c(c2=S)-c2cc(Cl)ccc2NC3(C)C)c1 [SCPI-2, 8-chloro-2-(3-methoxyphenyl)-4,4-dimethyl-4,5-dihydroisothiazol[5,4-c]quinoline-1(2H)-thione] | 22 | 900 | suppressed | 800 | 367836.9 | 69 | significantly lower | 369.02 | 29564.4 | significantly lower | significantly lower | 4.20±0.57 | 7.74±3.56 | 9.05±4.09 | 4.93±1.26 | 4.58±1.47 | 3.89±0.98 | 21.39±2.77 | 21.45±3.55 | 17.43±6.46 | lethality to Manduca larvae (Manduca sexta larvae): more lethal than SCPI-1; less stored [3H]-cholesterol in the fat body than for the SCPI-1-treatment ([6]; fat body, 6 hours post feeding): 56%; greater reduction in [3H]-cholesterol uptake/transport than the SCPI-1-treatment ([6]; midgut tissue): 46%; [3H]-cholesterol in the midgut tissue, % of the controls ([6]; midgut, 2 hour post feeding, SCPI at LD50 dosage in diet): 43.18%
C[C@H](CNc1ccc([N+](=O)[O-])c2nonc12)[C@H]1CC[C@H]2[C@@H]3CC=C4C[C@@H](O)CC[C@]4(C)[C@H]3CC[C@]12C [NBD-cholesterol, 22-(N-(7-nitrobenz-2-oxa-1,3-diazol-4-yl)amino)-23,24-bisnor-5-cholen-3β-ol] |  |  |  |  |  |  |  |  |  |  |  |  |  |  |  |  |  |  |  |  | binding of GST to NBD-cholesterol (GST): little binding; Kd (AeSCP-2 [7]): 820 nM; Kd (MsSCP-2 [8]): 1860 nM
